What was measured:
ABUTH [1] = experiment: Pre-emergence herbicidal action against ABUTH; type: in vivo, Abutilon theophrasti
Procedure, shortened: (§1)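 Herbicidal effect was assessed 3 weeks after treatment by visual comparison with untreated controls, 100% denoting dead plants. Aqueous WP or EC preparations had been applied at 600 to 800 l/ha with 0.2% wetting agent to the soil covering freshly sown seeds.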

AMARE = experiment: Pre-emergence herbicidal action against AMARE; type: in vivo, Amaranthus retroflexus
Procedure, shortened: as §1

ECHCG [2] = experiment: Pre-emergence herbicidal action against ECHCG; type: in vivo, Echinochloa crus-galli; details: 80 g/ha
Procedure, shortened: as §1

MATIN [3] = experiment: Pre-emergence herbicidal action against MATIN; type: in vivo, Matricaria inodora
Procedure, shortened: as §1

SETVI [4] = experiment: Pre-emergence herbicidal action against SETVI; type: in vivo, Setaria viridis
Procedure, shortened: as §1

VIOTR [5] = experiment: Pre-emergence herbicidal action against VIOTR; type: in vivo, Viola tricolor; details: dosage 80 g/ha
Procedure, shortened: as §1

DIGSA [6] = experiment: Pre-emergence herbicidal action against DIGSA; type: in vivo, Digitaria sanguinalis
Procedure, shortened: as §1

ABUTH [7] = experiment: Post-emergence herbicidal action against ABUTH; type: in vivo, Abutilon theophrasti; details: visual assessment about 3 weeks after treatment vs untreated controls
Procedure, shortened: (§2)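 Herbicidal effect was scored visually in percent after about 3 weeks in the greenhouse. Plants had been raised in sandy loam and treated post-emergence at the one-leaf stage with formulated compound at 600 to 800 l/ha water plus 0.2% wetting agent.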

ECHCG [8] = experiment: Post-emergence herbicidal action against ECHCG; type: in vivo, Echinochloa crus-galli; details: dosage 20 g/ha
Procedure, shortened: as §2

MATIN [9] = experiment: Post-emergence herbicidal action against MATIN; type: in vivo, Matricaria inodora
Procedure, shortened: as §2

PHBPU [10] = experiment: Post-emergence herbicidal action against PHBPU; type: in vivo, Pharbitis purpurea
Procedure, shortened: as §2

POLCO [11] = experiment: Post-emergence herbicidal action against POLCO; type: in vivo, Polygonum convolvulus; details: Fallopia convolvulus, 504 h
Protocol: Seeds of monocotyledonous and dicotyledonous weed and crop plants are laid out in sandy loam soil in wood-fiber pots, covered with soil and cultivated in a greenhouse under good growth conditions. 2 to 3 weeks after sowing, the test plants are treated at the one-leaf stage. The compounds of the invention, formulated in the form of wettable powders (WP) or as emulsion concentrates (EC), are then sprayed onto the green parts of the plants in the form of an aqueous suspension or emulsion at a water application rate equivalent to 600 to 800 l/ha, with addition of 0.2% wetting agent. After the test plants have been left to stand in the greenhouse under optimal growth conditions for about 3 weeks, the action of the preparations is assessed visually in comparison to untreated controls (herbicidal action in percent (%): 100% activity=the plants have died, 0% activity=like control plants). […] The tables below illustrate, in an illustrative manner, the post-emergence herbicidal action of the compounds of the invention, the herbicidal activity being stated in percent.

SETVI [12] = experiment: Post-emergence herbicidal action against SETVI; type: in vivo, Setaria viridis; details: dosage 20 g/ha
Procedure, shortened: as §2

VERPE [13] = experiment: Post-emergence herbicidal action against VERPE; type: in vivo, Veronica persica
Procedure, shortened: as §2

VIOTR [14] = experiment: Post-emergence herbicidal action against VIOTR; type: in vivo, Viola tricolor
Procedure, shortened: as §2

ALOMY [15] = experiment: Pre-emergence herbicidal action against ALOMY; type: in vivo, Alopecurus myosuroides; details: 80 g/ha, pre-emergence, scored visually after 3 weeks vs untreated controls (100% = plants have died, 0% = like control plants)
Procedure, shortened: as §1

AVEFA [16] = experiment: Pre-emergence herbicidal action against AVEFA; type: in vivo, Avena fatua; details: 80 g/ha, pre-emergence
Procedure, shortened: as §1

HORMU [17] = experiment: Pre-emergence herbicidal action against HORMU; type: in vivo, Hordeum murinum; details: 80 g/ha, pre-emergence
Procedure, shortened: as §1

LOLRI = experiment: Pre-emergence herbicidal action against LOLRI; type: in vivo, Lolium rigidum; details: 80 g/ha
Procedure, shortened: as §1

PHBPU [18] = experiment: Pre-emergence herbicidal action against PHBPU; type: in vivo, Pharbitis purpurea; details: dosage 80 g/ha
Procedure, shortened: as §1

POLCO [19] = experiment: Pre-emergence herbicidal action against POLCO; type: in vivo, Polygonum convolvulus
Procedure, shortened: as §1

STEME [20] = experiment: Pre-emergence herbicidal action against STEME; type: in vivo, Stellaria media
Procedure, shortened: as §1

VERPE [21] = experiment: Pre-emergence herbicidal action against VERPE; type: in vivo, Veronica persica; details: dosage 80 g/ha
Procedure, shortened: as §1

ALOMY [22] = experiment: Post-emergence herbicidal action against ALOMY; type: in vivo, Alopecurus myosuroides; details: dosage 20 g/ha, visual assessment about 3 weeks after treatment vs untreated controls
Procedure, shortened: as §2

AVEFA [23] = experiment: Post-emergence herbicidal action against AVEFA; type: in vivo, Avena fatua; details: 20 g/ha, visual assessment about 3 weeks after treatment, 100% = plants have died, 0% = like control plants
Procedure, shortened: as §2

HORMU [24] = experiment: Post-emergence herbicidal action against HORMU; type: in vivo, Hordeum murinum; details: dosage 20 g/ha
Procedure, shortened: as §2

STEME [25] = experiment: Post-emergence herbicidal action against STEME; type: in vivo, Stellaria media
Procedure, shortened: as §2

DIGSA [26] = experiment: Post-emergence herbicidal action against DIGSA; type: in vivo, Digitaria sanguinalis
Procedure, shortened: as §2

[27] = Tripleurospermum inodorum, 504 h, dosage 20 g/ha
[28] = 80 g/ha, scored visually after 3 weeks vs untreated controls (100% = plants have died, 0% = like control plants)

CNC(=O)c1c(C(F)F)ccc(C(=O)Nc2nnnn2C)c1OC [Example 1-72]
pest or weed control at 80 g/ha (ABUTH [1]; Abutilon theophrasti, 504 h, 80 g/ha, scored visually after 3 weeks vs untreated controls (100% = plants have died, 0% = like control plants)): 100%
pest or weed control at 20 g/ha (ABUTH [1]; Abutilon theophrasti, 504 h, dosage 20 g/ha, scored visually after 3 weeks vs untreated controls, 100% = plants have died, 0% = like control plants, read-out: Pre-emergence action against ABUTH (herbicidal activity in percent)): 100%
pest or weed control at 20 g/ha (AMARE; Amaranthus retroflexus, 504 h, 20 g/ha, scored visually after 3 weeks vs untreated controls, 100% = plants have died, 0% = like control plants): 100%
pest or weed control at 80 g/ha (AMARE; Amaranthus retroflexus, 504 h, 80 g/ha, scored visually after 3 weeks vs untreated controls, 100% = plants have died, 0% = like control plants): 100%
pest or weed control at 80 g/ha (ECHCG [2]; Echinochloa crus-galli, 504 h): 80%
pest or weed control at 20 g/ha (MATIN [3]; [27]): 80%
pest or weed control at 80 g/ha (MATIN [3]; Tripleurospermum inodorum, 504 h, dosage 80 g/ha): 100%
pest or weed control at 80 g/ha (SETVI [4]; Setaria viridis, 504 h, dosage 80 g/ha): 100%
pest or weed control at 80 g/ha (VIOTR [5]; Viola tricolor, 504 h): 100%
pest or weed control at 20 g/ha (DIGSA [6]; Digitaria sanguinalis, 504 h, dosage 20 g/ha): 90%
pest or weed control at 80 g/ha (DIGSA [6]; Digitaria sanguinalis, 504 h, dosage 80 g/ha): 100%
pest or weed control at 5 g/ha (ABUTH [7]; Abutilon theophrasti, 504 h, dosage 5 g/ha): 80%
pest or weed control at 20 g/ha (ABUTH [7]; Abutilon theophrasti, 504 h, dosage 20 g/ha): 90%
pest or weed control at 20 g/ha (ECHCG [8]; Echinochloa crus-galli, 504 h): 80%
pest or weed control at 20 g/ha (MATIN [9]; [27]): 80%
pest or weed control at 20 g/ha (PHBPU [10]; Ipomoea purpurea, 504 h, dosage 20 g/ha): 80%
pest or weed control at 5 g/ha (POLCO [11]; dosage 5 g/ha): 100%
pest or weed control at 20 g/ha (POLCO [11]; dosage 20 g/ha): 100%
pest or weed control at 20 g/ha (SETVI [12]; Setaria viridis, 504 h): 80%
pest or weed control at 5 g/ha (VERPE [13]; Veronica persica, 504 h, 5 g/ha): 80%
pest or weed control at 20 g/ha (VERPE [13]; Veronica persica, 504 h, 20 g/ha): 90%
pest or weed control at 20 g/ha (VIOTR [14]; Viola tricolor, 504 h, 20 g/ha): 90%

CCn1nnnc1NC(=O)c1ccc(C(F)(F)F)c(C(=O)NC)c1C [Example 2-25]
Pre-emergence action against ABUTH (herbicidal activity) (ABUTH [1]; [28]): 100%
Pre-emergence action against ABUTH (herbicidal activity in percent) (ABUTH [1]; dosage 20 g/ha, scored visually after 3 weeks vs untreated controls, 100% = plants have died, 0% = like control plants): 100%
Pre-emergence action against ALOMY (herbicidal activity) (ALOMY [15]): 90%
Pre-emergence action against AMARE in % (AMARE; 20 g/ha, scored visually after 3 weeks vs untreated controls, 100% = plants have died, 0% = like control plants): 100%
Pre-emergence action against AMARE in % (AMARE; [28]): 100%
Pre-emergence action against AVEFA in % (AVEFA [16]): 100%
Pre-emergence action against ECHCG in % (ECHCG [2]): 100%
Pre-emergence action against HORMU in % (HORMU [17]): 90%
Pre-emergence action against LOLRI in % (LOLRI): 80%
Pre-emergence action against MATIN in % (MATIN [3]; dosage 20 g/ha): 100%
Pre-emergence action against MATIN in % (MATIN [3]; dosage 80 g/ha): 100%
Pre-emergence action against PHBPU in % (PHBPU [18]): 80%
Pre-emergence action against POLCO in % (POLCO [19]; dosage 20 g/ha): 100%
Pre-emergence action against POLCO in % (POLCO [19]; dosage 80 g/ha): 100%
Pre-emergence action against SETVI in % (SETVI [4]; dosage 20 g/ha): 100%
Pre-emergence action against SETVI in % (SETVI [4]; dosage 80 g/ha): 100%
Pre-emergence action against STEME in % (STEME [20]; dosage 20 g/ha): 90%
Pre-emergence action against STEME in % (STEME [20]; dosage 80 g/ha): 100%
Pre-emergence action against VERPE in % (VERPE [21]): 100%
Pre-emergence action against VIOTR in % (VIOTR [5]): 100%
Pre-emergence action against DIGSA in % (DIGSA [6]; dosage 20 g/ha): 100%
Pre-emergence action against DIGSA in % (DIGSA [6]; dosage 80 g/ha): 100%
Post-emergence action against ABUTH in % (ABUTH [7]; dosage 5 g/ha): 100%
Post-emergence action against ABUTH in % (ABUTH [7]; dosage 20 g/ha): 100%
Post-emergence action against ALOMY in % (ALOMY [22]): 90%
Post-emergence action at 20 g/ha against AVEFA in % (AVEFA [23]): 100%
Post-emergence action against ECHCG in % (ECHCG [8]): 80%
Post-emergence action against HORMU in % (HORMU [24]): 80%
Post-emergence action against MATIN in % (MATIN [9]; dosage 5 g/ha): 90%
Post-emergence action against MATIN in % (MATIN [9]; dosage 20 g/ha): 100%
Post-emergence action against PHBPU in % (PHBPU [10]; dosage 5 g/ha): 80%
Post-emergence action against PHBPU in % (PHBPU [10]; dosage 20 g/ha): 90%
Post-emergence action against SETVI in % (SETVI [12]): 80%
Post-emergence action against STEME in % (STEME [25]; 20 g/ha): 100%
Post-emergence action against STEME in % (STEME [25]; dosage 5 g/ha): 90%
Post-emergence action against VERPE in % (VERPE [13]; 20 g/ha): 90%
Post-emergence action against VIOTR in % (VIOTR [14]; 5 g/ha): 80%
Post-emergence action against VIOTR in % (VIOTR [14]; 20 g/ha): 90%
Post-emergence action against DIGSA in % (DIGSA [26]; 5 g/ha): 80%
Post-emergence action against DIGSA (DIGSA [26]; 20 g/ha): 90%

Reference: patent publication US12655116B2, “Substituted isophthalic acid diamides” (Bayer Aktiengesellschaft, priority 2020, dated 2026)
